Laboratory results reported in PubChem BioAssay (NCI).
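Assay format: 96-well plates, 48-hour exposure. Abbreviation: GI50, concentration required for 50% inhibition of growth. Definition used: TGI = concentration required for complete inhibition of growth.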

Tests used:
Assay in all cases: NCI anticancer screen, dose series, 48 h
ACHN renal = tested on: ACHN renal
DU-145 prostate = tested on: DU-145 prostate
K-562 leukemia = tested on: K-562 leukemia
M14 melanoma = tested on: M14 melanoma
OVCAR-4 ovarian = tested on: OVCAR-4 ovarian
OVCAR-5 ovarian = tested on: OVCAR-5 ovarian
SK-MEL-2 melanoma = tested on: SK-MEL-2 melanoma
SK-MEL-5 melanoma = tested on: SK-MEL-5 melanoma
SNB-19 CNS = tested on: SNB-19 CNS
UO-31 renal = tested on: UO-31 renal

## COc1cc2cc(Oc3ccc(NC(=O)Nc4ccc(F)c(C(F)(F)F)c4)cc3)c(C)nc2cc1OCCN1CCCCC1
ACHN renal
  GI50: 1650 nM
  TGI: 3010 nM
DU-145 prostate
  GI50: 1750 nM
  TGI: 3200 nM
K-562 leukemia
  GI50: 1290 nM
  TGI: 3790 nM
M14 melanoma
  GI50: 1810 nM
  TGI: 3530 nM
OVCAR-4 ovarian
  GI50: 1600 nM
  TGI: 3130 nM
OVCAR-5 ovarian
  GI50: 1720 nM
  TGI: 3100 nM
SK-MEL-2 melanoma
  GI50: 1840 nM
  TGI: 3450 nM
SK-MEL-5 melanoma
  GI50: 1700 nM
  TGI: 3090 nM
SNB-19 CNS
  GI50: 1760 nM
  TGI: 3290 nM
UO-31 renal
  GI50: 1410 nM
  TGI: 2730 nM
